Tests used:
GST-FABP5 = target: T1, GST-FABP5; assay: Evaluation of FABP ligand affinity using ANS (GST-FABP5); format: binding, mouse; settings: ANS fluorescence displacement; mean±SE of three measurements; read-out: Kd value of FABP for each ligand, GST-FABP5
T1 construct: made in house; host or cells: E. coli BL21 (DE3)
Description: (§1) GST-FABP3, GST-FABP4, GST-FABP5, and GST-FABP7 were each expressed in E. coli [BL21 (DE3) strain], and then affinity purification was performed using a glutathione column.
(§2) Cloning of GST-FABP3, GST-FABP4, GST-FABP5 and GST-FABP7 vectors was performed by the following method. After reverse transcription of mRNA isolated from mouse heart into cDNA, the FABP3 gene (RefSeqID: NM_010174.1) and FABP4 gene (RefSeqID: NM_024406.2) were each amplified by PCR. These cDNAs were each inserted between the BamHI/EcoRI cleavage sites of a pGEX-2T vector (GE HealthCare Japan, Tokyo) using a DNA ligation kit (Takara Bio, Kusatsu) and an In-fusion kit (Takara Bio USA, CA, USA) to prepare vectors.
(§3) Purification of GST-binding proteins was performed using a GST purification kit (Takara Bio USA). After the E. coli were collected by centrifugation, the provided extraction buffer and aluminum oxide powder were added, and the mixture was crushed in a mortar. The centrifuged supernatant was added to the provided glutathione column and allowed to stand on ice for 30 minutes. The supernatant in the column was then discarded, and washing was performed with extraction buffer, followed by elution with elution buffer containing glutathione. The protein concentration of the elution product was calculated from the absorbance at 280 nm and then used for the ANS assay. 1-anilinonaphthalene-8-sulfonic acid (ANS, final concentration: […], in a solution of 10 mM KH2PO4 and 40 mM KCl at pH 7.4), which binds to FABP proteins and emits fluorescence, and FABP proteins (final concentration: […]), as well as various ligands at concentrations of 0 nM, 100 nM, 1,000 nM, 2,000 nM, and 4,000 nM (final) were incubated for 2 min, and then the fluorescence of ANS was measured (Ex/Em=355 nm/460 nm). The fluorescence intensity at each ligand concentration was converted to a relative value (%) to the ANS fluorescence intensity in the absence of ligand, and then the dissociation constant Kd (nM) was calculated by […] using the following equation.

GST-FABP7 = target: T2, GST-FABP7 (Homo sapiens, UniProt O15540, K110R); assay: Evaluation of FABP ligand affinity using ANS (GST-FABP7); format: binding, mouse; settings: ANS fluorescence displacement; mean±SE of three measurements; read-out: Kd value of FABP for each ligand, GST-FABP7
T2 construct: made in house; host or cells: E. coli BL21 (DE3)
T2 sequence (O15540 1-132 K110R): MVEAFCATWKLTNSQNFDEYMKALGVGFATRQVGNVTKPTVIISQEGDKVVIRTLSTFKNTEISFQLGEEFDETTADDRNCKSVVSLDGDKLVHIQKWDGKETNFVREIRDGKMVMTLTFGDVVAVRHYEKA
Description: as §1, §2, §3
(§4) The Kd values in the above table are indicated as the mean±SE of three measurements. […] Example Compounds 1 to 5 in the table may also be referred to as Compounds 1 to 5, respectively.

GST-FABP3 = target: T3, GST-FABP3; assay: Evaluation of FABP ligand affinity using ANS (GST-FABP3); format: binding, mouse; settings: ANS fluorescence displacement; mean±SE of three measurements; read-out: Kd value of FABP for each ligand, GST-FABP3
T3 construct: made in house; host or cells: E. coli BL21 (DE3)

GST-FABP4 = target: T4, GST-FABP4; assay: Evaluation of FABP ligand affinity using ANS (GST-FABP4); format: binding, mouse; settings: ANS fluorescence displacement; mean±SE of three measurements; read-out: Kd value of FABP for each ligand, GST-FABP4
T4 construct: made in house; host or cells: E. coli BL21 (DE3)
Description: as §1, §2, §3, §4

[1] = tested on: MPTP-treated C57BL6 N mice (PD model animals); assay: Beam walking task in PD model animals (MPTP); format: in vivo, mouse; settings: Example Compound 2 0.03, 0.1, 0.3 mg/kg or LIGAND 1 0.3 mg/kg, Day 34, FIG. 5
Description: In the beam walking task, the mice were placed on a thin board and allowed to walk, and the number of foot slips before reaching the goal box (corresponding to the vertical axis Number of foot slips in FIG. 5) was measured.

dopaminergic neurons = settings: reported in PTL 1 and NPL 6; cited from earlier work
[2] = tested on: dopaminergic neurons (TH+ cells) in SNpc and VTA; assay: Dopaminergic neuroprotection: TH-positive cells in brain sections of PD model animals; format: in vivo, mouse; settings: MPTP mice; Example Compound 2 0.1, 0.3, 1.0 mg/kg or LIGAND 1 0.3 mg/kg; Day 34; FIGS. 6 to 9
Description: (§5) The results for the substantia nigra region are shown in FIGS. 6, 7, 10, 11, 14, and 15, and for the ventrotegmental area in FIGS. 8, 9, 12, 13, 16, and 17 (the vertical axis Number of TH^+ cells in FIGS. 6 and 8 corresponds to the number of dopaminergic neurons. The vertical axis Number of double-positive cells/TH^+ positive cells (%) in FIGS. 11 and 13 corresponds to the percentage of dopaminergic neurons that contain phosphorylated α-synuclein. The vertical axis Triple-positive cells/TH-positive cells in FIGS. 15 and 17 corresponds to the percentage of dopaminergic neurons that contain both FABP3 and phosphorylated α-synuclein).

[3] = tested on: MPTP-treated C57BL6 N mice (PD model animals); assay: Rotarod task in PD model animals (MPTP); format: in vivo, mouse; settings: Example Compound 2 0.03, 0.1, 0.3 mg/kg or LIGAND 1 0.3 mg/kg, Day 34, 20 rpm, FIG. 4
[4] = tested on: MPTP-treated C57BL6 N mice (PD model animals); assay: Passive avoidance task in PD model animals (MPTP); format: in vivo, mouse; settings: 0.05, 0.1 and 0.3 mg/kg p.o. once daily for two weeks from Day 20, Day 34, FIG. 2
[5] = tested on: ICR mice, focal cerebral ischemia (tMCAO); assay: Cerebral neuroprotection in focal cerebral ischemia model (tMCAO); format: in vivo, mouse; settings: tMCAO 2 hours, 0.3 mg/kg orally after reperfusion
Description: Male ICR mice (5 weeks old, 25-30 g) were purchased from Japan SLC, Inc. (Shizuoka, Japan). The animals were reared under constant temperature and humidity conditions, in a 12-hour light/dark cycle (light on: 09:00-21:00), and fed ad libitum. All mice were anesthetized with a combination of 0.3 mg/kg medetomidine, 4.0 mg/kg midazolam, and 5.0 mg/kg butorphanol. A silicone-coated 6-0 suture (Doccol Corporation, USA) was inserted from the right external carotid artery into the internal carotid artery up to the origin of the middle cerebral artery, and left in place for 2 hours, then the suture was removed and reperfusion was performed to prepare a mouse model of focal cerebral ischemia (tMCAO). Mice in the sham surgery group underwent the same treatment except for the insertion of the suture. […] Regional cerebral blood flow (rCBF) was monitored by Laser-Doppler flowmetry (FLOC1, OMEGAWAVE, Tokyo, Japan) to confirm whether the right hemisphere was ischemic or not. […] Infarct volume was measured using ImageJ software and expressed as a percentage of the total hemisphere (corresponding to B in FIG. 19, E in FIG. 21, and H in FIG. 23. The vertical axis Neurological score in C of FIG. 19, F of FIG. 21, and I of FIG. 23 represents the neurological deficit. The vertical axis Survival rate (%) in FIG. 24 corresponds to the mouse survival rate). […]

[6] = tested on: FABP3 and phosphorylated α-synuclein; assay: Double staining for phosphorylated α-synuclein and FABP3 in dopaminergic neurons of PD model animals; format: in vivo, mouse; settings: MPTP mice
Description: as §5

[7] = tested on: MPTP-treated C57BL6 N mice (PD model animals); assay: Novel object recognition task in PD model animals (MPTP); format: in vivo, mouse; settings: 0.03, 0.1 and 0.3 mg/kg p.o. once daily for two weeks, Day 34, FIG. 3
Description: In the novel object recognition task, objects of the same shape were placed to be memorized by the mice in the training trial, and in the test trial, one of the objects was replaced with a novel object, and the rate of contact with both objects (corresponding to the vertical axis Discrimination index (%) in FIG. 3) was evaluated.

[8] = tested on: phosphorylated α-synuclein; assay: Phosphorylated α-synuclein staining in dopaminergic neurons of PD model animals; settings: MPTP mice
Description: as §5

T3 sequence (P05413 with tags, fused parts or gaps): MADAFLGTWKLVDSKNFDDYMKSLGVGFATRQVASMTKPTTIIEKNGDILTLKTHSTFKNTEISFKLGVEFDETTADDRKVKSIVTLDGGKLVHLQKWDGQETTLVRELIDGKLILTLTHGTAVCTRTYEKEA
T1 sequence (Q01469 whole entry): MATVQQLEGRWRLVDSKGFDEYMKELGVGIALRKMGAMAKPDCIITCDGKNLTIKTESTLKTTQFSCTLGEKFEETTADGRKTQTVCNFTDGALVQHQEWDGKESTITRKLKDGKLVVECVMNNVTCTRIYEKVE
T4 sequence (P15090 whole entry): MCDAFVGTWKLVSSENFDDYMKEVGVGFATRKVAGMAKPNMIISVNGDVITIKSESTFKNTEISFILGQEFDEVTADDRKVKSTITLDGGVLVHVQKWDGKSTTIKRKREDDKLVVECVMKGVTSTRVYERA

Compound | Kd (GST-FABP5) [µM] | Kd (GST-FABP7) [µM] | Kd (GST-FABP3) [µM] | Kd (GST-FABP4) [µM] | Beam walking task: number of foot slips, motor function [1] | Number of TH+ cells (dopaminergic neurons) in SNpc and VTA [2] | Rotarod task: time until the mice fell (Latency), motor function [3] | further results
CC(C)c1ccc(-n2nc(-c3cc(F)ccc3OCCCC(=O)O)cc2-c2ccccc2C(F)(F)F)cc1 [Example Compound 4, 4-(4-fluoro-2-(1-(4-isopropylphenyl)-5-(2-(trifluoromethyl)phenyl)-1H-pyrazol-3-yl)phenoxy)butanoic acid] | 1.35 ± 0.204 | ≥ 1000 | 0.113 ± 0.0031 | 2.18 ± 0.458 |  |  |  | 
O=C(O)CCCOc1ccccc1-c1nc(-c2ccccc2C(F)(F)F)n(-c2ccccc2)n1 [Example Compound 3, 4-(2-(1-phenyl-5-(2-(trifluoromethyl)phenyl)-1H-1,2,4-triazol-3-yl)phenoxy)butanoic acid] |  | ≥ 1000 | 0.16 ± 0.0341 | 0.369 ± 0.0441 |  |  |  | 
O=C(O)CCCOc1ccccc1-c1cc(-c2ccccc2Cl)n(-c2ccccc2)n1 [LIGAND 1, reference compound] | 0.324 ± 0.0452 |  |  | 0.229 ± 0.0399 | Improvement was also confirmed | no improvement was observed | No improvement was observed | Protection of dopaminergic neurons from cell death due to α-synuclein oligomerization (dopaminergic neurons): protects dopaminergic neurons from cell death
O=C(O)CCCOc1ccc(F)cc1-c1cc(-c2ccccc2C(F)(F)F)n(-c2ccccc2)n1 [Example Compound 1, 4-(4-fluoro-2-(1-phenyl-5-(2-(trifluoromethyl)phenyl)-1H-pyrazol-3-yl)phenoxy)butanoic acid] |  | ≥ 1000 |  |  |  |  |  | Passive avoidance task: time until entering the dark room (Latency) [4]: concentration-dependent prolongation of the waiting time; Mouse survival rate compared to Vehicle mice ([5]; FIG. 24): improved; Cerebral infarct volume compared to Vehicle mice ([5]; TTC staining): reduced
O=C(O)CCCOc1ccccc1-c1cc(-c2ccccc2C(F)(F)F)n(-c2ccccc2)n1 [Example Compound 2, 4-(2-(1-phenyl-5-(2-(trifluoromethyl)phenyl)-1H-pyrazol-3-yl)phenoxy)butanoic acid] | 0.189 ± 0.0245 | 2.05 ± 0.0352 | 0.0117 ± 0.0188 | 0.104 ± 0.0363 | improvement in motor function was confirmed | suppresses the decrease in dopaminergic neurons | improvement in motor function was confirmed | Localization of FABP3 and phosphorylated α-synuclein in dopaminergic neurons ([6]; 0.1, 0.3, 1.0 mg/kg, Day 34, SNpc and VTA, FIGS. 14 to 17): reduced; Interaction between phosphorylated α-synuclein and FABP3 in dopaminergic neurons, substantia nigra (SNpc) ([6]; brain sections of SNpc, FIG. 15): inhibited; Interaction between phosphorylated α-synuclein and FABP3 in dopaminergic neurons, ventrotegmental area (VTA) ([6]; brain sections of VTA, FIG. 17): inhibited; Novel object recognition task: rate of contact with novel and known objects (Discrimination index) [7]: trend of improvement in cognitive function; Phosphorylation level of α-synuclein in dopaminergic neurons ([8]; 0.1, 0.3, 1.0 mg/kg, Day 34, SNpc and VTA, FIGS. 10 to 13): reduced; Protection of dopaminergic neurons from the toxicity of phosphorylated α-synuclein, substantia nigra (SNpc) ([8]; brain sections of SNpc, FIG. 11): protected dopaminergic neurons; Protection of dopaminergic neurons from the toxicity of phosphorylated α-synuclein, ventrotegmental area (VTA) ([8]; brain sections of VTA, FIG. 13): protected dopaminergic neurons
CC(C)c1ccc(-n2nc(-c3ccccc3OCCCC(=O)O)cc2-c2ccccc2C(F)(F)F)cc1 [Example Compound 5, 4-(2-(1-(4-isopropylphenyl)-5-(2-(trifluoromethyl)phenyl)-1H-pyrazol-3-yl)phenoxy)butanoic acid] | 1.82 ± 0.392 | ≥ 1000 | 0.0548 ± 0.0045 | 0.434 ± 0.0109 |  |  |  | 

— patent publication US20260085047A1, “TRIPHENYLAZOLE COMPOUND” (SHIRATORI PHARMACEUTICAL CO., LTD., priority 2022, published 2026)
